Source: BigSolDB 2.1

C[N+](C)(C)CC(=O)[O-]
Conditions | solubility (mole fraction)
in DMSO, 288.51 K | 0.001
in DMSO, 292.73 K | 0.00116
in DMSO, 298.34 K | 0.00139
in DMSO, 305.16 K | 0.00172
in DMSO, 308.53 K | 0.0019
in DMSO, 313.2 K | 0.00219
in DMSO, 318.16 K | 0.00253
in DMSO, 322.88 K | 0.00291
in DMSO, 327.87 K | 0.00334
in DMSO, 333.58 K | 0.00391
in acetic acid, 292.83 K | 0.23
in acetic acid, 297.84 K | 0.239
in acetic acid, 302.28 K | 0.252
in acetic acid, 308.31 K | 0.268
in acetic acid, 312.79 K | 0.279
in acetic acid, 317.76 K | 0.298
in acetic acid, 322.58 K | 0.306
in acetic acid, 328.87 K | 0.327
in acetic acid, 333.12 K | 0.344
in ethylene glycol, 283.42 K | 0.102
in ethylene glycol, 288.53 K | 0.109
in ethylene glycol, 292.46 K | 0.117
in ethylene glycol, 298.03 K | 0.125
in ethylene glycol, 303.87 K | 0.137
in ethylene glycol, 308.52 K | 0.145
in ethylene glycol, 314.59 K | 0.161
in ethylene glycol, 318.19 K | 0.167
in ethylene glycol, 323.98 K | 0.183
in ethylene glycol, 328.33 K | 0.192
in isopentanol, 286.47 K | 0.000166
in isopentanol, 289.13 K | 0.000185
in isopentanol, 293.93 K | 0.000225
in isopentanol, 298.25 K | 0.000269
in isopentanol, 302.72 K | 0.000316
in isopentanol, 307.37 K | 0.000378
in isopentanol, 314.06 K | 0.000477
in isopentanol, 318.23 K | 0.000556
in isopentanol, 322.6 K | 0.000646
in n-pentanol, 285.88 K | 0.000216
in n-pentanol, 289.5 K | 0.000249
in n-pentanol, 294.44 K | 0.000301
in n-pentanol, 299.59 K | 0.000368
in n-pentanol, 304.38 K | 0.000436
in n-pentanol, 309.45 K | 0.000523
in n-pentanol, 313.8 K | 0.000609
in n-pentanol, 318.18 K | 0.000705
in n-pentanol, 323.02 K | 0.000822
